These results are taken from ChEMBL document CHEMBL5252524, “Therapeutic progress in amyotrophic lateral sclerosis-beginning to learning” (2016).

Molecules are shown by their SMILES.

Format in all cases: functional
The species entered for assay [1] is Mus musculus. As to the kind of experiment: Anti-oxidative activity against ALS mouse model assessed as animal survival relative to control.
The species entered for assay [2] is Mus musculus. As to the kind of experiment: Anti-inflammatory activity against ALS mouse model harbouring human G93A SOD1 mutant assessed as survival relative to control.
For assay [3], the species on record is Mus musculus. As to the kind of experiment: Effect on mitochondrial protection in ALS mouse model assessed as survival relative to control.
Assay [4] addresses Superoxide dismutase [Cu-Zn] (Homo sapiens) (UniProt P00441). In words: Effect on human SOD1 protein homeostasis in ALS mouse model assessed as survival relative to control.
The species entered for assay [5] is Mus musculus. In words: Anti-oxidative activity against ALS transgenic mouse model harbouring human G93A SOD1 (B6SJL-TgN(SOD1-G93A)1Gur mutant assessed as survival relative to control.
For assay [6], the species on record is Mus musculus. In words: Anti-excitotoxic activity against ALS transgenic mouse model harbouring human G93A SOD1 (B6SJL-TgN(SOD1-G93A)1Gur mutant assessed as survival relative to control.
Assay [7] is filed under the species Mus musculus. In words: Anti-inflammatory activity against ALS transgenic mouse model harbouring human G93A SOD1 (B6SJL-TgN(SOD1-G93A)1Gur mutant assessed as survival relative to control.
For assay [8], the species on record is Mus musculus. As to the kind of experiment: Anti-inflammatory activity against ALS mouse model assessed as animal survival relative to control.
The species named for assay [9] is Mus musculus. As to the kind of experiment: Anti-apoptotic activity against ALS mouse model expressing human G93A SOD1 mutant assessed as survival relative to control.
The species entered for assay [10] is Mus musculus. In words: Anti-apoptotic activity against ALS mouse model assessed as animal survival relative to control.
The species entered for assay [11] is Mus musculus. In words: Anti-inflammatory activity against ALS B6SJLF1/J mouse model assessed as animal survival relative to control.
The species named for assay [12] is Mus musculus. In words: Anti-excitotoxic activity against ALS mouse model assessed as animal survival relative to control.

Chain of Superoxide dismutase [Cu-Zn] (Homo sapiens) (P00441 whole entry): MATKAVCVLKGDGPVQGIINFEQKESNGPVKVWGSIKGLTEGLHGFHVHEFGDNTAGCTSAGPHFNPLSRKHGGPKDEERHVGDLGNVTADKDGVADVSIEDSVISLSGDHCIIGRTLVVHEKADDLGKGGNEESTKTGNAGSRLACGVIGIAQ

`C#CCN(C)Cc1ccc(O)c2ncccc12`: the Survival in assay [1] was 6%. As to `CN1CCCCC1Cn1cc(C(=O)c2cc([N+](=O)[O-])ccc2I)c2ccccc21` (centres undefined), the Survival in assay [2] worked out at 10%. In the case of `CN(CC(=O)O)C(=N)N.O`, the Survival in assay [3] was found to be 15%. For the molecule `O=C([O-])[O-].[Li+].[Li+]`, the Survival in assay [4] amounted to 36%. For the molecule `[O-][n+]1cccc(/C(Cl)=N/OC[C@H](O)CN2CCCCC2)c1`, in [4], the Survival was found to be 9%. Regarding `CC(=O)N[C@@H](CS)C(=O)O` [ACETYLCYSTEINE], in [5], the Survival came out at 7%. With `CO/N=C(\C(=O)N[C@@H]1C(=O)N2C(C(=O)O)=C(CSc3nc(=O)c(O)nn3C)CS[C@H]12)c1csc(N)n1` [CEFTRIAXONE], in [6], the Survival is 8%.

In the case of `CC1=C(O)C(=O)C=C2C1=CC=C1[C@@]2(C)CC[C@@]2(C)[C@@H]3C[C@](C)(C(=O)O)CC[C@]3(C)CC[C@]12C` [CELASTROL], in assay [7], the Survival was 9%.

Take `Cc1ccc(-c2cc(C(F)(F)F)nn2-c2ccc(S(N)(=O)=O)cc2)cc1` [CELECOXIB]: the Survival in assay [8] is given as 25%. `Nc1cccc2c1CN(C1CCC(=O)NC1=O)C2=O` (centres undefined) [LENALIDOMIDE]: in [7], the Survival stood at 18%. With `COc1ccc2[nH]cc(CCNC(C)=O)c2c1` [MELATONIN], the Survival in [9] is recorded as 7%. Take `CC12CC3CC(C)(C1)CC(N)(C3)C2` [MEMANTINE]: in assay [6], the Survival worked out at 5%. As to `CN(C)c1ccc(O)c2c1C[C@H]1C[C@H]3[C@H](N(C)C)C(O)=C(C(N)=O)C(=O)[C@@]3(O)C(O)=C1C2=O` [MINOCYCLINE], in assay [10], the Survival came to 6%. Consider `COC1=C(OC)C(=O)C(CCCCCCCCCC[P+](c2ccccc2)(c2ccccc2)c2ccccc2)=C(C)C1=O.CS(=O)(=O)[O-]` [MITOQUINONE MESYLATE], for which the Survival in assay [5] came out at 4%. On to `CC(C)CCC[C@@H](C)[C@H]1CC[C@H]2[C@@H]3CCC4=CC(=NO)CC[C@]4(C)[C@H]3CC[C@]12C` [OLESOXIME], for which the Survival in [3] was found to be 10%.

Take `CCc1ccc(CCOc2ccc(CC3SC(=O)NC3=O)cc2)nc1` (centres undefined) [PIOGLITAZONE]: the Survival in assay [11] was found to be 8%. On to `Nc1nc2ccc(OC(F)(F)F)cc2s1` [RILUZOLE], for which, in assay [12], the Survival is listed as 10%. Regarding `O=C([O-])CCCc1ccccc1.[Na+]` [SODIUM PHENYLBUTYRATE], the Survival in assay [10] is reported as 22%.

Regarding `O=C1CCC(N2C(=O)c3ccccc3C2=O)C(=O)N1` (centres undefined) [THALIDOMIDE], the Survival in assay [8] was 12%.
